Data taken from patent US20240024273A1, “TOPICAL ADMINISTRATION OF 2-(DIETHYLAMINO)ETHYL 2-(4-ISOBUTYLPHENYL)PROPRIONATE FOR TREATMENT OF DISEASES” (TECHFIELDS PHARMA CO., LTD., priority 2020, published 2024).

Test system: Subjects with Osteoarthritis of the Knee
Experiment: Second Phase 2 study: safety (treatment-emergent adverse events)
Assay type: in vivo, human
Conditions: for Adverse events of special interest, Events / Adverse events of special interest, Subjects, number (%) / Local skin reactions around the treated knees, Events / Local skin reactions around the treated knees, Subjects, number (%) / Requires hospitalization, Events / Requires hospitalization, Subjects, number (%) / Results in death, number (%) / Serious treatment-emergent adverse events, Events / Serious treatment-emergent adverse events, Subjects, number (%) / Severe treatment-emergent adverse events, Events / Severe treatment-emergent adverse events, Subjects, number (%) / To be discontinued from the study due to adverse events, Events / To be discontinued from the study due to adverse events, Subjects, number (%) / To be discontinued from the treatment temporarily due to adverse events, Events / To be discontinued from the treatment temporarily due to adverse events, Subjects, number (%) / Treatment-emergent adverse events, Events / Treatment-emergent adverse events, Subjects, number (%): All Causalities
Description: Safety assessments will be performed at each visit and will include assessment of AEs, vital signs (blood pressure, pulse rate, and oral temperature), clinical laboratories, physical examination, skin irritation, and electrocardiograms (ECGs) as indicated in the study flow chart, Table 47.
Safety assessments will include AEs, vital signs (blood pressures, pulse rate, and oral temperature), clinical laboratories, physical examination, skin irritation, and ECGs at various time points during the study as indicated in the study flow chart.
Adverse events of interest include: local skin reactions around the treated knee(s), upper stomach pain, GI bleeding, serious cardiovascular side effects (e.g., thrombotic events, myocardial infarction, or stroke), jaundice, elevated liver function tests, and nausea.
Safety analyses will be conducted on the SAS. Safety parameters will be listed and summarized using standard descriptive statistics, as appropriate. No formal statistical analyses are planned.

[1] = moderate adverse events, 4.375 mg/knee, BID, N = 71

## CCN(CC)CCOC(=O)C(C)c1ccc(CC(C)C)cc1 (stereo not drawn) [2-(diethylamino)ethyl 2-(4-isobutylphenyl)propionate]
17.5 mg/knee, BID, N = 70
  Aspartate Aminotransferase Increased: number of adverse events: 1
  Aspartate Aminotransferase Increased: percentage of subjects with adverse events: 1.4%
  Aspartate Aminotransferase Increased: subjects with adverse events: 1
  Back Pain: number of adverse events: 1(%)[1]
  Back Pain: subjects with adverse events, number (percentage): 1(%)[1]
  Constipation: number of adverse events: 1
  Constipation: percentage of subjects with adverse events: 1.4%
  Constipation: subjects with adverse events: 1
  Cough: number of adverse events: 2
  Cough: subjects with adverse events, number (percentage): 2(2.9%)
  Dizziness: number of adverse events: 1
  Dizziness: subjects with adverse events, number (percentage): 1(1.4%)
  Frequency of Positive Fecal Occult Blood Test: 5
  Gastrointestinal Disorders: number of adverse events: 5
  Gastrointestinal Disorders: percentage of subjects with adverse events: 5.7%
  Gastrointestinal Disorders: subjects with adverse events: 4
  Gout: number of adverse events: 1
  Gout: percentage of subjects with adverse events: 1.4%
  Gout: subjects with adverse events: 1
  Headache: number of adverse events: 1
  Headache: subjects with adverse events, number (percentage): 1(1.4%)
  Hypercholesterolaemia: number of adverse events: 2
  Hypercholesterolaemia: percentage of subjects with adverse events: 2.9%
  Hypercholesterolaemia: subjects with adverse events: 2
  Hypertriglyceridemia: number of adverse events: 6
  Hypertriglyceridemia: percentage of subjects with adverse events: 8.6%
  Hypertriglyceridemia: subjects with adverse events: 6
  Infections and Infestations: number of adverse events: 14
  Infections and Infestations: subjects with adverse events, number (percentage): 13(18.6%)
  Investigations: number of adverse events: 1
  Investigations: percentage of subjects with adverse events: 1.4%
  Investigations: subjects with adverse events: 1
  Metabolism and Nutrition Disorders: number of adverse events: 9
  Metabolism and Nutrition Disorders: percentage of subjects with adverse events: 11.4%
  Metabolism and Nutrition Disorders: subjects with adverse events: 9
  Muscle Spasms: number of adverse events: 3
  Muscle Spasms: subjects with adverse events, number (percentage): 2
  Musculoskeletal Pain: number of adverse events: 2
  Musculoskeletal Pain: subjects with adverse events, number (percentage): 1
  Musculoskeletal and Connective Tissue Disorders, Overall Total: number of adverse events: 8
  Musculoskeletal and Connective Tissue Disorders, Overall Total: subjects with adverse events, number (percentage): 6(8.6%)
  Neck Pain: number of adverse events: 1(%)[1]
  Neck Pain: subjects with adverse events, number (percentage): 1(%)[1]
  Nervous System Disorders: number of adverse events: 2
  Nervous System Disorders: subjects with adverse events, number (percentage): 2(2.9%)
  Pain in Extremity: number of adverse events: 1(%)[1]
  Pain in Extremity: subjects with adverse events, number (percentage): 1(%)[1]
  Rash: number of adverse events: 2
  Rash: percentage of subjects with adverse events: 4.2%
  Rash: subjects with adverse events: 2
  Respiratory, Thoracic and Mediastinal Disorders: number of adverse events: 2
  Respiratory, Thoracic and Mediastinal Disorders: subjects with adverse events, number (percentage): 2(2.9%)
  Skin Irritation: number of adverse events: 4
  Skin Irritation: percentage of subjects with adverse events: 1.4%
  Skin Irritation: subjects with adverse events: 3
  Skin and Subcutaneous Tissue Disorders: number of adverse events: 6
  Skin and Subcutaneous Tissue Disorders: percentage of subjects with adverse events: 7.1%
  Skin and Subcutaneous Tissue Disorders: subjects with adverse events: 5
  Subjects with Positive Fecal Occult Blood Test: 5
  Subjects with Positive Fecal Occult Blood Test, percentage: 7.1%
  Toothache: number of adverse events: 1
  Toothache: percentage of subjects with adverse events: 1.4%
  Toothache: subjects with adverse events: 1
  Upper Respiratory Tract Infection: number of adverse events: 5
  Upper Respiratory Tract Infection: subjects with adverse events, number (percentage): 5(7.1%)
  Urinary Tract Infection: number of adverse events: 9
  Urinary Tract Infection: subjects with adverse events, number (percentage): 8(11.4%)
4.375 mg/knee BID, n = 71
  Adverse events of special interest, Events: 16
  Adverse events of special interest, Subjects, number (%): 11 (15.5%)
  Local skin reactions around the treated knees, Events: 1
  Local skin reactions around the treated knees, Subjects, number (%): 1 (1.4%)
  Requires hospitalization, Events: 0
  Requires hospitalization, Subjects, number (%): 0
  Results in death, number (%): 1 (1.4%)
  Serious treatment-emergent adverse events, Events: 1
  Serious treatment-emergent adverse events, Subjects, number (%): 1 (1.4)
  Severe treatment-emergent adverse events, Events: 1
  Severe treatment-emergent adverse events, Subjects, number (%): 1 (1.4%)
  To be discontinued from the study due to adverse events, Events: 1
  To be discontinued from the study due to adverse events, Subjects, number (%): 1 (1.4%)
  To be discontinued from the treatment temporarily due to adverse events, Events: 1
  To be discontinued from the treatment temporarily due to adverse events, Subjects, number (%): 1 (1.4%)
  Treatment-emergent adverse events, Events: 68
  Treatment-emergent adverse events, Subjects, number (%): 41 (57.7%)
8.75 mg/knee BID, n = 70
  Adverse events of special interest, Events: 12
  Adverse events of special interest, Subjects, number (%): 10 (14.3)
  Local skin reactions around the treated knees, Events: 1
  Local skin reactions around the treated knees, Subjects, number (%): 1 (1.4%)
  Requires hospitalization, Events: 1
  Requires hospitalization, Subjects, number (%): 1 (1.4%)
  Results in death, number (%): 0
  Serious treatment-emergent adverse events, Events: 1
  Serious treatment-emergent adverse events, Subjects, number (%): 1 (1.4)
  Severe treatment-emergent adverse events, Events: 1
  Severe treatment-emergent adverse events, Subjects, number (%): 1 (1.4%)
  To be discontinued from the study due to adverse events, Events: 0
  To be discontinued from the study due to adverse events, Subjects, number (%): 0
  To be discontinued from the treatment temporarily due to adverse events, Events: 1
  To be discontinued from the treatment temporarily due to adverse events, Subjects, number (%): 1 (1.4%)
  Treatment-emergent adverse events, Events: 71
  Treatment-emergent adverse events, Subjects, number (%): 39 (55.7%)
17.5 mg/knee BID, n = 70
  Adverse events of special interest, Events: 14
  Adverse events of special interest, Subjects, number (%): 11 (15.7)
  Local skin reactions around the treated knees, Events: 5
  Local skin reactions around the treated knees, Subjects, number (%): 4 (5.7%)
  Requires hospitalization, Events: 0
  Requires hospitalization, Subjects, number (%): 0
  Results in death, number (%): 0
  Serious treatment-emergent adverse events, Events: 0
  Serious treatment-emergent adverse events, Subjects, number (%): 0
  Severe treatment-emergent adverse events, Events: 0
  Severe treatment-emergent adverse events, Subjects, number (%): 0
  To be discontinued from the study due to adverse events, Events: 1
  To be discontinued from the study due to adverse events, Subjects, number (%): 1 (1.4%)
  To be discontinued from the treatment temporarily due to adverse events, Events: 0
  To be discontinued from the treatment temporarily due to adverse events, Subjects, number (%): 0
  Treatment-emergent adverse events, Events: 52
  Treatment-emergent adverse events, Subjects, number (%): 30 (42.9%)
All three doses (4.375, 8.75, 17.5 mg/knee BID)
  safety and tolerability: appeared to be safe and were generally well tolerated
In vivo
  skin irritation incidences, total (all mild): 9
In vivo, po
  overall safety vs oral ibuprofen: safer than oral ibuprofen
[1]
  Gastroenteritis: number of adverse events: 1
  Gastroenteritis: percentage of subjects with adverse events: 1.4%
